# Assay results from US20240385182A1, “MASKED FLUOROGENIC LIPID COMPOUNDS, LIPID PARTICLES COMPRISING THE SAME, AND METHODS OF USE THEREOF” (Rutgers, The State University of New Jersey, priority 2023, published 2024).
# pIC50: −log10 of the molar value. Entries after “also recorded” stand apart in the source; their conditions may differ.
# Tests used:
# [1] = Confocal imaging of giant vesicles containing DPPC-TC-ONOO^− treated with redox species
# Description: FIG. 8A: conceptual illustration of function of the model protocell. FIG. 8B: confocal images acquired for untreated (top panel) and peroxynitrite-treated (middle and bottom panels) GVs. FIG. 8C: confocal images acquired for GVs treated with other RNS and ROS. FIGS. 8B-8C: vesicles were prepared from POPC (98.5%, molar ratio) and DPPC-TC-ONOO^− (1%) via electroformation. Liss-Rhod PE dye (red, 560 nm excitation) was used at 0.5 mol % to label vesicle membranes. […] Scale bar=5 μm. In most biomimetic systems that rely on compartmentalization, physical membrane boundaries are comprised of self-assembled lipids. Biomimetic membranes can be represented by GVs, which have dimensional properties (1-30 μm in diameter) relevant to those of mammalian cells (10-100 μm), display physical characteristics feasible for confocal fluorescence imaging, and are utilized for bottom-up construction of biomimetic systems. […] Given the longer timescale required for data acquisition in microscopy compared to fluorescence measurements by plate reader, the pH of imaging buffers was set to 8.5, which extended the lifetime of peroxynitrite. […] Vesicle size distribution was analyzed by dynamic light scattering (DLS), confirming the presence of GVs. […] GVs were then imaged using fluorescence confocal microscopy. […]
# [2] = test system: HeLa and RAW 264.7 cells; experiment: MTT cell viability assay; format: cell-based; conditions: 8-250 μM, 24-hour period
# Description: With a feasible liposome preparation and treatment protocol established for live cell imaging, attention was turned to assessing the cytocompatibility of the LNPs, with or without DPPC-TC-ONOO^−, DPPC-TC, and the oxa-spiro[4,5] decenone 6a. A standard 3-(4,5-dimethylthiazol-2-yl)-2,5-diphenyl tetrazolium bromide (MTT) cell viability assay in HeLa and RAW 264.7 cells treated with these molecules (8-250 μM) over a 24-hour period. The dose-response curves provided high IC50 values for each compound: DPPC-TC-ONOO− (≥100 μM), DPPC-TC (≥50 μM), and 6 (≥70 μM).
# [3] = test system: RAW-264.7 cells; experiment: Confocal imaging and colocalization in live RAW-264.7 cells; format: cell-based, murine
# Description: FIGS. 10A-10E: confocal imaging of lipid environments targeted by ONOO^− in live RAW246.7 cells. Cells were seeded into glass microscope dishes, incubated with LNPs (50 μM) and stained with organelle trackers and/or actin dye prior to imaging. LNPs obtained from a 47.5:47.5:5.0 molar ratio of DOTMA, DOPE, and DPPC-TC-ONOO^−. FIG. 10A: cells treated with LNPs, stimulated with LPS. Time coarse images acquired after addition of LPS. FIG. 10B: cells treated with LNPs and 1400 W. FIG. 10C: cells treated with LNPs, then with 1400 W and LPS. FIGS. 10D-10E: quantitative colocalization study of cells treated with LNPs and stimulated with LPS. Pearson's correlation coefficient (PCC) was calculated for quantitative assessment of colocalization using organelle trackers as described above. Scale bars=20 μm (FIGS. 10A-10D) or 5 μm (FIG. 10E). With the utility of DPPC-TC-ONOO^− proven in synthetic protocell membranes, incorporation into live HeLa and RAW 264.7 cells was sought, which are relevant to redox-induced stress and have well-recognized pathways for RNS and ROS production. Lipid nanoparticles (LNPs) (˜100 nm in diameter) was used to deliver DPPC-TC-ONOO− into cells. This method circumvented the limited solubility of DPPC-TC-ONOO− due to the relatively hydrophobic butanone-coumarin motif. LNPs were obtained via sonication from 1,2-di-O-octadecenyl-3-trimethylammonium propane (DOTMA), 1,2-dioleoyl-sn-glycero-3-phosphoethanolamine (DOPE), and DPPC-TC-ONOO− (47.5:47.5:5.0 molar ratio), which were hydrated with a 300 mM sucrose solution. DOTMA and DOPE were chosen as the carrier lipids due to their cationic/zwitterionic natures, which has been postulated to enhance uptake through the cell membrane. The impact of different LNP compositions and incubation times on the cellular incorporation of DPPC-TC-ONOO^− was assessed. […] Specifically, LNPs containing greater than 10 mol % DPPC-TC-ONOO− were considerably more heterogenous in size (up to […] observed, in contrast to ˜100 nm) and nonuniform in vesicle lamellarity. Those with less than 4 mol % DPPC-TC-ONOO− led to insufficient fluorescence signal. To balance these counteracting factors, 5 mol % DPPC-TC-ONOO− was used, with 47.5 mol % DOTMA and DOPE, each. In these initial assays, cells were incubated with LNPs for up to 15 hours to complete the uptake and intracellular localization of DPPC-TC-ONOO−. Shorter incubation times (3-to-5 hours) led to its uptake but not subcellular localization. […] However, high serum concentration in DMEM caused interference between LNPs and serum-protein, resulting in aggregate formation as observed by microscopy. To overcome this obstacle, LNPs (50 μM) were used in a mixture of 2/3 volumetric ratio of sucrose solution and Opti-MEM™, a reduced serum medium known to increase the efficiency of lipofection. The investigations were expanded to include murine-derived macrophage model, RAW-264.7 (FIGS. 10A-10E). RNS play important roles in macrophage activation and differentiation as part of the inflammatory response. Treatment of RAW-264.7 cells with LPS leads to the expression of iNOS, which produces NO·, which then reacts with O2·^−, generating ONOO−. RAW-264.7 cells were treated with LNPs containing either DPPC-TC (positive control) or DPPC-TC-ONOO^− (FIGS. 10A-10E). […] Assessment of DPPC-TC-ONOO^− localization in RAW-264.7 cells was carried out using the ER, Golgi, mitochondrion, and lysosome trackers (FIGS. 10D-10E).
smiles,measurement,setting,value
CCCCCCCCCCCCCCCC(=O)OCC(COP(=O)([O-])OCC[N+](C)(C)Cc1cn(-c2cc3ccc(OC(=O)Oc4ccc(CCC(=O)C(F)(F)F)cc4)cc3oc2=O)nn1)OC(=O)CCCCCCCCCCCCCCC (racemic) [DPPC-TC-ONOO^−],GV membrane fluorescence at 405 nm excitation,"[1]; GVs of POPC and DPPC-TC-ONOO^− (~99:1), ONOO^− 100 μM",substantial increase in membrane fluorescence; also recorded: strong fluorescence
same,GV fluorescence at 405 nm excitation,"[1]; GVs of POPC and DPPC-TC-ONOO^−, other redox species (NO·, H2O2, HO·, ^1O2, O2·^−) 100 μM, 5 min",essentially no fluorescence generation; also recorded: minimal fluorescence
same,pIC50,[2],≤ 4.00
same,signal in the DPPC-TC channel,"[3]; RAW-264.7, 1400 W only or 1400 W and LPS",little-to-no signal
same,PCC,"[3]; RAW-264.7, ER tracker",0.946
same,PCC,"[3]; RAW-264.7, Golgi tracker",0.729
same,fluorescence intensity,"[3]; RAW-264.7, LNPs, stimulation with LPS over 16 hours",substantial increase in fluorescence intensity
same,signal at 405/475 nm,"[3]; RAW-264.7, LNPs, unstimulated",negligible levels of signal
